In the experiment the target is T1, Carboxypeptidase A1 (Homo sapiens, UniProt P15085).
T1 sequence (P15085 whole entry): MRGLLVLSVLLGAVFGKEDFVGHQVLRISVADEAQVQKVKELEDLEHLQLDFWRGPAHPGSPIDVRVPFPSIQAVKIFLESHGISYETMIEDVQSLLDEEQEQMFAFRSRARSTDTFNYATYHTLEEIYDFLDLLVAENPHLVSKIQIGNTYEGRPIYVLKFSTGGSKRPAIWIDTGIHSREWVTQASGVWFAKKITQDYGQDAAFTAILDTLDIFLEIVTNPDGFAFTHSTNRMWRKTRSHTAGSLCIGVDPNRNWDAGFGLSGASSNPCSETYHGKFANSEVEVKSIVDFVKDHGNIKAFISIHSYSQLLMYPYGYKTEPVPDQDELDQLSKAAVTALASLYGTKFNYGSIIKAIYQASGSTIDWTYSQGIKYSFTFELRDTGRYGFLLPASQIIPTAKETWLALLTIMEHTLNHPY
As to the kind of experiment: Inhibition of carboxypeptidase A.

Structures are written as SMILES. Converted amounts (≈) assume the structure as drawn. Starred links: 1 amine or outer side, 2 acyl side, 3 side chain; linkers in the order of their positions; H or OH if unused. Positions of bridges follow the written chain, without caps; N, C: chain ends. Non-standard residues stand in square brackets, D forms with d. Residues, ends and D or L forms follow the SMILES beside them. NMehTyr = CN[C@@H](CCc1ccc(O)cc1)C(=O)O; hTyr = N[C@@H](CCc1ccc(O)cc1)C(=O)O; CO = O=C([*:1])[*:2]

One may read the IC50 as the midpoint of a concentration-inhibition curve. A lower IC50 goes with greater potency in that assay. `CC[C@H](C)[C@@H]1NC(=O)[C@H](NC(=O)N[C@@H](Cc2ccc(O)cc2)C(=O)O)CCCCNC(=O)[C@H]([C@@H](C)CC)NC(=O)[C@H](CCc2ccc(O)cc2)N(C)C(=O)[C@H](CCc2ccc(O)cc2)NC1=O` [Anabaenopeptin G] ({Tyr-CO}-[dK]I[hTyr][NMehTyr]I; lactam 1-C) showed an IC50 of 7 ng/mL (≈ 7.53 nM).
